Source: PMC6887723, “Design and Synthesis of 4-(Heterocyclic Substituted Amino)-1H-Pyrazole-3-Carboxamide Derivatives and Their Potent Activity against Acute Myeloid Leukemia (AML)” (International Journal of Molecular Sciences, 2019)

System: phosphorylation of the retinoblastoma protein (Rb)
Assay: Western blot, phosphorylation of Rb in MV4-11 cells
Format: cell-based, human
Conditions: MV4-11, 4 h; dose-dependent; at 1 μM comparable with AT-7519
Protocol: Analysis of pFLT3, pSTAT5, pERK, pAKT, and pRb in vitro: to determine the levels of pFLT3, pSTAT5, pERK, pAKT, and pRb, cells were seeded in a 6-well cell culture plate at a density of 400,000 cells per well for MV4-11 in a total volume of 1800 μL and incubated overnight in medium containing 10% fetal bovine serum (Life Technologies, Rockville, MD, USA). Then 200 μL of serially diluted compounds were added to each well the next day. Cell lysates were harvested after 4 h and pFLT3, pSTAT5, pERK, pAKT, or pRb were quantified using assay kits for FLT3/Phospho-FLT3Tyr589/591, pSTAT5 (Tyr694)/total STAT5, pRb (Ser807)/total Rb (Nanjin keyGen Biotech Company, Nanjing, China) following the manufacturer’s protocols.

## O=C(Nc1ccc(N2CCNCC2)cc1)c1n[nH]cc1Nc1ncnc2sc3c(c12)CCC3 [Compound 8t]
  phosphorylation of the retinoblastoma protein (Rb): inhibited
